Data: paper PMC10900215 (JACS Au, 2024)
Several values for one entry are separate records, joined by “and”; a condition that tells them apart may be missing. Equal entries are not always repeated.

Tests used:
[1] = tested on: METTL14; test: Cellular degradation assay (Western blot), METTL14 in MOLM-13; assay type: cell-based, human; settings: MOLM-13, 24 h, 2 μM compound
Description: (§1) MOLM-13, NOMO-1, THP-1, Kasumi-1, PC3, and DU145 cell lines were obtained from DSMZ-German Collection of Microorganisms and Cell Cultures GmbH. Cells were cultured in RPMI 1640 medium (11875093, Thermo Fisher Scientific) containing 10% FBS (16140071, Thermo Fisher Scientific) and 1% penicillin-streptomycin (15140122, Thermo Fisher Scientific) in 5% CO2 at 37 °C in a humidified incubator, with maintained cell densities at 0.5–1 × 10^6 cells/mL. All cell lines were tested negative for mycoplasma contamination (PCR-based assay by Microsynth, Switzerland).
(§2) METTL3 (and METTL14) protein degradation was monitored by Western blot. Cells were treated with the indicated concentration of PROTACs or DMSO control (0.1% (v/v)) for 24h, 37 °C with 5% CO2. Samples were then collected and lysed with RIPA buffer with added protease inhibitors (11697498001, Roche). After SDS-PAGE, proteins were transferred to a nitrocellulose membrane, blocked (with 5% milk, 0.5% BSA in TBST buffer), and incubated overnight with primary antibodies. The following antibodies were used: GAPDH (no. 2118, Cell Signaling, 1:4000), β-actin (ab8226, Abcam, 1:2000), METTL3 (ab195352, Abcam, 1:1000), and METTL14 (ab220031, Abcam, 1:1000). Membranes were scanned using an LI-COR Odyssey DLx imager after incubation with appropriate secondary antibodies (antimouse IgG IRDye 680RD (926–68072, LI-COR, 1:10000) and goat anti-Rabbit IgG IRDye 800CW (926–32211, LI-COR, 1:10000)). Densitometry was performed in Image Studio Lite software and analyzed in GraphPad Prism 9.

[2] = target: T1, ternary complex CRBN/PROTAC/METTL3–14 (Homo sapiens, UniProt Q86U44+Q96SW2); test: FRET-based ternary complex formation assay (TCFA); assay type: binding; settings: for TCFA amplitude (mean ± SEM): Hook curve amplitude, fraction of the maximum of compound 16; for ECmax (nM) ± SD: PROTAC concentration at the maximum of the signal in the TCFA; for ECmax: TCFA, peak of the Hook curve
T1 construct: methyltransferase domains (MTD) of METTL3 (residues 354–580); His6 (N, cleaved yes); made in house; host or cells: METTL3-MTD/METTL14-MTD: baculovirus/Sf9; CRBN-TBD: E. coli Rosetta (DE3), co-expressed with BirA
Description: For protein expression, suspension cultures of Sf9 cells in […] medium (Thermo Fisher) were infected at a density of 2 × 10^6 mL^–1. […] The complex was further purified by size exclusion chromatography using a Superdex 200 Increase 10/300 GL column (Cytiva) in 20 mM Tris-Cl, pH 8.0, and 200 mM KCl. The complex was aliquoted and flash-frozen in liquid nitrogen and stored at −80 °C until further use.
Ternary complex formation between the PROTACs, METTL3, and CRBN was quantified by a homogeneous time-resolved fluorescence (HTRF)-based enzyme assay. […] Curves of titrations with the PROTACs were plotted in GraphPad Prism 9.5.1 and fitted with a Gaussian function, if appropriate. […] CRBN^TBD-Avi(biotin) was used at a final concentration of 10 nM. […] Anti-GST Eu^3+-labeled antibody (Cisbio, 61GSTKLB) was used at a final concentration of 0.8 nM. The final reaction volume was 20 μL in 50 mM HEPES (pH 7.5), 150 mM NaCl, 0.1% BSA, 100 mM KF. […] The ratio of the emissions [drawing 1] was considered for further analysis. […] The concentrations resulting in the maximum signal (ECmax) and the amplitudes of the Hook curves were determined from the parameters of the Gaussian fit (if appropriate) or as the coordinates of the data-point with the highest TR-FRET signal.
For the ternary complex formation assay (TCFA), one of the protein partners must have a GST-tag and the other a biotin-tag.

[3] = Cell viability assay (CellTiter-Glo) on MOLM-13; assay type: cell-based; settings: human, MOLM-13 cells, average of two biological replicates; for viability at 72 h, […]: 2.5 µM
Description: as §1
Cell viability was determined using a CellTiter-Glo luminescent cell viability assay (Promega) based on the detection of ATP according to the manufacturer’s instructions. 100 μL of the reagent was added to each well and incubated for 10 min at room temperature. […] Background luminescence value was obtained from wells containing the CellTiter-Glo reagent and medium without cells. The resulting data was analyzed in GraphPad Prism 9.

[4] = target: T2, METTL3 (Homo sapiens, UniProt Q86U44); test: Cellular degradation assay (Western blot), METTL3 in MOLM-13; assay type: cell-based; settings: MOLM-13, 24 h, 2 μM compound
T2 construct: METTL3–14 degradation up to 70% of the endogenous level; endogenous in cells; host or cells: MOLM-13, PC3, DU145
Description: as §1, §2

[5] = target: METTL3-14 (Homo sapiens, UniProt Q86U44); test: biochemical; parameters: with the full-length complex, the recombinant complex construct pFastBacDual-StrepII-GFP-TEV-METTL3-His-TEV-METTL14 was expressed; StrepII (N); GFP (N); TEV site (N); made in house; host or cells: baculovirus/Sf9 insect cells; settings: inhibition of catalytic activity of METTL3-14, binary FRET assay
Description: For determining the half maximal inhibitory concentration (IC50) with the full-length complex, the recombinant complex construct pFastBacDual-StrepII-GFP-TEV-METTL3-His-TEV-METTL14 was expressed using the baculovirus/Sf9 insect cell expression system and purified as described previously.[21]
The inhibitory potencies of the PROTACs for METTL3 were quantified by a homogeneous time-resolved fluorescence (HTRF)-based enzyme assay as previously described.[40]

T1 sequence (Q86U44 354-580): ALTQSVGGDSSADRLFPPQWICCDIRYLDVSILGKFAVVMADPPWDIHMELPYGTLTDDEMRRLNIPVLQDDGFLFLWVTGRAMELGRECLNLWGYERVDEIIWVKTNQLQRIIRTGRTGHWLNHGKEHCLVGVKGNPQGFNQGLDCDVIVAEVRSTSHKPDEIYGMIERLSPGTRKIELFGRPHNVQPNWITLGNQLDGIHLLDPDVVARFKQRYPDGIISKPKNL
T1 sequence (Q9HCE5 107-395 partner limits assumed): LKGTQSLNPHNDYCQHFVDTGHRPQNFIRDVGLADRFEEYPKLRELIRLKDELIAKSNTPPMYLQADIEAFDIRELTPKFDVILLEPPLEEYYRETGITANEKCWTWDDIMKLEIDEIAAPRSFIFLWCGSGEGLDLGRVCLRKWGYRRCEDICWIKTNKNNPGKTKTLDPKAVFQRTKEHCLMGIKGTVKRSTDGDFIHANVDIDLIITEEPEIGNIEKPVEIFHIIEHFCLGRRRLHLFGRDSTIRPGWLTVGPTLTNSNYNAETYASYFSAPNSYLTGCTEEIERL
T1 sequence (Q96SW2 318-442): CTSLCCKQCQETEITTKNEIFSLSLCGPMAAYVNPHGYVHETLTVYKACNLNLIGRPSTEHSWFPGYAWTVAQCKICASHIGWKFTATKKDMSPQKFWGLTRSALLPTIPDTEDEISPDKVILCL
T2 sequence (Q86U44 2-580 limits assumed): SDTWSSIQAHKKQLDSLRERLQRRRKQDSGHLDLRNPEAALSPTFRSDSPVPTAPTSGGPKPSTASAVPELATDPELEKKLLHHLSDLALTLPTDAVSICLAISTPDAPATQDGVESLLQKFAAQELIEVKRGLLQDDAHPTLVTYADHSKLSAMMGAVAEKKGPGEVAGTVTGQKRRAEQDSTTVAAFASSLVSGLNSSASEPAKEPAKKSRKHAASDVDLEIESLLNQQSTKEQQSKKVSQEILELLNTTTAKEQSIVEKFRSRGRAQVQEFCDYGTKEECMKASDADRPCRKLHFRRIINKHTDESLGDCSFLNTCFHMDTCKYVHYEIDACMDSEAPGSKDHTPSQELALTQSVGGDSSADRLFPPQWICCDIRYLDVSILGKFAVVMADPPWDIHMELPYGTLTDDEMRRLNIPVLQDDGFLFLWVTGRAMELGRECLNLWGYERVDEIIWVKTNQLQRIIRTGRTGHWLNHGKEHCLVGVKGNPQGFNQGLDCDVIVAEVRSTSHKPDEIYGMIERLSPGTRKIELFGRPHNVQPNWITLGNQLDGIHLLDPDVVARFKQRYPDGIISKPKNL
T2 sequence (Q9HCE5 whole entry partner): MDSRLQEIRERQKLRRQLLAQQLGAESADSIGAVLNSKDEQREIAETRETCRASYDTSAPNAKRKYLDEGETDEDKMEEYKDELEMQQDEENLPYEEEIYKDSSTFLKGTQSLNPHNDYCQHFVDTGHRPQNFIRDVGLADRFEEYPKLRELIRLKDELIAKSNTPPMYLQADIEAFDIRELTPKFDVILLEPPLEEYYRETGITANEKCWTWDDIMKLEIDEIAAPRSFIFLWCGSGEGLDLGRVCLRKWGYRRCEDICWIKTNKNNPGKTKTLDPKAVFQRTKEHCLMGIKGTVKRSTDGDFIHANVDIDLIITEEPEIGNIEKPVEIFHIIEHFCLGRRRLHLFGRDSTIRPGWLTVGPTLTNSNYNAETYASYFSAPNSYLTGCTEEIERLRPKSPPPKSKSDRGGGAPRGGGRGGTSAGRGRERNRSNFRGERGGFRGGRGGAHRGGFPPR
Chain of METTL3-14 (Q86U44 whole entry): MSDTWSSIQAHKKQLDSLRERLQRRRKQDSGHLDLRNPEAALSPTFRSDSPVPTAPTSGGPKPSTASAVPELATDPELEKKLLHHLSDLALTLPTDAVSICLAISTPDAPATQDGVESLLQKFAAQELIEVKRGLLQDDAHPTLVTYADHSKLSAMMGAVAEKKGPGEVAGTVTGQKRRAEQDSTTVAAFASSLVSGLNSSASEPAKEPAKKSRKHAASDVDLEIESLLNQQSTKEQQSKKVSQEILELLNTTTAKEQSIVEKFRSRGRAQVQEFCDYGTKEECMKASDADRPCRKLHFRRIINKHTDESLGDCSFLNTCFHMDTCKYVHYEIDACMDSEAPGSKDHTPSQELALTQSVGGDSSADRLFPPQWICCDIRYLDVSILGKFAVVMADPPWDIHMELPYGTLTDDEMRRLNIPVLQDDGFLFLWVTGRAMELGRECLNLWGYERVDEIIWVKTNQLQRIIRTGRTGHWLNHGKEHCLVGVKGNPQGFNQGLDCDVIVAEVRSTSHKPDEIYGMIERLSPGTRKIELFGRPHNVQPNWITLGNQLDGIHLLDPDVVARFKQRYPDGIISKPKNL
Chain of METTL3-14 (Q9HCE5 whole entry, further chain): as the sequence (Q9HCE5 whole entry partner) above

Row | Structure (SMILES) | MOLM-13 West. blot at 24h 2 μM comp conc. Degradation (%) of METTL14 [1] | TCFA amplitude (mean ± SEM) [2] | ECmax (nM) ± SD [2] | viability at 72 h, 0.6 µM [3] | viability at 72 h, 1.25 µM [3] | viability at 72 h, […] [3] | viability at 72 h, 5 µM [3] | viability at 72 h, 10 µM [3] | ECmax [2] | MOLM-13 West. blot at 24h 2 μM comp conc. Degradation (%) of METTL3 [4] | IC50 [5]
1 | CC1(C)CCN(Cc2cc(F)c(N3CC(=O)NC4(CCN(c5cc(NCc6ccc(N7CCN(c8cccc9c8C(=O)N(C8CCC(=O)NC8=O)C9=O)CC7)cc6)ncn5)CC4)C3)cc2F)CC1 (centres unmarked) [Compound 34] | < 10% | 0.2 ± 0.1 | 120 ± 30 nM | 95.8% | 97.3% | 96.3% | 99.2% | 101% | – | – | –
2 | CC1(C)CCN(Cc2ccc(N3CC(=O)NC4(CCN(c5cc(NCCCNC(=O)CCOCCOCCOCCNc6cccc7c6C(=O)N(C6CCC(=O)NC6=O)C7=O)ncn5)CC4)C3)cc2)CC1 (centres unmarked) [Compound 2] | / (Degradation <10% or stabilization) | 0.3 ± 0.1 | 2800 ± 280 nM | – | – | – | – | – | 2.8 µM | / (Degradation <10% or stabilization) | 1060 ± 220 nM
3 | CC1(C)CCN(Cc2cc(F)c(N3CC(=O)NC4(CCN(c5cc(NCCCNC(=O)CCCCCCCCCCn6cc(CNc7cccc8c7C(=O)N(C7CCC(=O)NC7=O)C8=O)nn6)ncn5)CC4)C3)cc2F)CC1 (centres unmarked) [Compound 13] | 19 ± 13% | 0.8 ± 0.0 | 1800 ± 250 nM | – | – | – | – | – | – | 19 ± 20% | 220 ± 40 nM
4 | CC1(C)CCN(Cc2ccc(N3CC(=O)NC4(CCN(c5cc(NCCCNC(=O)CCCCCCCCCCCCCCNc6cccc7c6CN(C6CCC(=O)NC6=O)C7=O)ncn5)CC4)C3)cc2)CC1 (centres unmarked) [Compound 7] | / (Degradation <10% or stabilization) | 0.1 | 5300 (n = 1) nM | – | – | – | – | – | – | / (Degradation <10% or stabilization) | 1220 ± 90 nM
5 | CC1(C)CCN(Cc2ccc(N3CC(=O)NC4(CCN(c5cc(NCCCNC(=O)CCOCCOCCOCCOCCOCCNc6cccc7c6C(=O)N(C6CCC(=O)NC6=O)C7=O)ncn5)CC4)C3)cc2)CC1 (centres unmarked) [Compound 4] | / (Degradation <10% or stabilization) | 0.4 | 2000 (n = 1) nM | – | – | – | – | – | 2.0 µM | / (Degradation <10% or stabilization) | 640 ± 120 nM
6 | CC1(C)CCN(Cc2cc(F)c(N3CC(=O)NC4(CCN(c5cc(NCC6CCN(C(=O)CN7CCN(c8cccc9c8C(=O)N(C8CCC(=O)NC8=O)C9=O)CC7)CC6)ncn5)CC4)C3)cc2F)CC1 (centres unmarked) [Compound 35] | 25 ± 3% | 0.7 ± 0.2 | 20 ± 0 nM | – | – | – | – | 105% | – | 21% and 21 ± 11% | –
7 | CC1(C)CCN(Cc2ccc(N3CC(=O)NC4(CCN(c5cc(NCCCNC(=O)CCCCCCCCn6cc(CNc7cccc8c7C(=O)N(C7CCC(=O)NC7=O)C8=O)nn6)ncn5)CC4)C3)cc2)CC1 (centres unmarked) [Compound 9] | / (Degradation <10% or stabilization) | 0.4 | 6700 (n = 1) nM | – | – | – | – | – | – | / (Degradation <10% or stabilization) | 1800 ± 290 nM
8 | CC1(C)CCN(Cc2ccc(N3CC(=O)NC4(CCN(c5cc(NCCCNC(=O)CCCCCCCCCCn6cc(CNc7cccc8c7C(=O)N(C7CCC(=O)NC7=O)C8=O)nn6)ncn5)CC4)C3)cc2)CC1 (centres unmarked) [Compound 8] | / (Degradation <10% or stabilization) | 0.6 | 2200 (n = 1) nM | – | – | – | – | – | – | / (Degradation <10% or stabilization) | 480 ± 100 nM
9 | CC1(C)CCN(Cc2ccc(N3CC(=O)NC4(CCN(c5cc(NCCCNC(=O)CCCCCCCCCCNc6cccc7c6CN(C6CCC(=O)NC6=O)C7=O)ncn5)CC4)C3)cc2)CC1 (centres unmarked) [Compound 6] | / (Degradation <10% or stabilization) | 0.4 | 3600 (n = 1) nM | – | – | – | – | – | – | / (Degradation <10% or stabilization) | 520 ± 60 nM
10 | CC1(C)CCN(Cc2cc(F)c(N3CC(=O)NC4(CCN(c5cc(NCC6CCN(C(=O)CNc7cccc8c7C(=O)N(C7CCC(=O)NC7=O)C8=O)CC6)ncn5)CC4)C3)cc2F)CC1 (centres unmarked) [Compound 21] | 23 ± 9% | 1.3 ± 0.1 | 60 ± 30 nM | 104% | 105% | 110% | 110% | 102% | 0.06 µM | 21% and 21 ± 9% | –
11 | CC1(C)CCN(Cc2ccc(N3CC(=O)NC4(CCN(c5cc(NCCCNC(=O)CCCCCCCCNc6cccc7c6CN(C6CCC(=O)NC6=O)C7=O)ncn5)CC4)C3)cc2)CC1 (centres unmarked) [Compound 5] | / (Degradation <10% or stabilization) | 0.7 ± 0.1 | 660 ± 20 nM | – | – | – | – | – | – | / (Degradation <10% or stabilization) | 260 ± 30 nM
12 | CC1(C)CCN(Cc2ccc(N3CC(=O)NC4(CCN(c5cc(NCCCNC(=O)CCOCCOCCOCCOCCNc6cccc7c6C(=O)N(C6CCC(=O)NC6=O)C7=O)ncn5)CC4)C3)cc2)CC1 (centres unmarked) [Compound 3] | / (Degradation <10% or stabilization) | 0.3 ± 0.2 | 1900 (n = 1) nM | – | – | – | – | – | 1.9 µM | / (Degradation <10% or stabilization) | 590 ± 130 nM
